Data taken from patent US20210122739A1, “NOVEL SULFONAMIDE CARBOXAMIDE COMPOUNDS” (Inflazome Limited, priority 2017, published 2021).
pIC50: −log10 of the molar value.

target: NLRP3 (Homo sapiens, UniProt Q96P20); experiment: THP-1 cells pyroptosis assay; type: cell-based; design: Seed THP-1 cells (25,000 cells/well) containing 1.0 μg/ml LPS; host or cells: THP-1 cells, LPS-primed, nigericin-stimulated; details: 1.0 μg/ml LPS, nigericin 5 μM, resazurin readout
From the text: It is well established that the activation of NLRP3 leads to cell pyroptosis and this feature plays an important part in the manifestation of clinical disease (Yan-gang Liu et al., Cell Death & Disease, 2017, 8(2), e2579; Alexander Wree et al., Hepatology, 2014, 59(3), 898-910; Alex Baldwin et al., Journal of Medicinal Chemistry, 2016, 59(5), 1691-1710; Ema Ozaki et al., Journal of Inflammation Research, 2015, 8, 15-27; Zhen Xie & Gang Zhao, Neuroimmunology Neuroinflammation, 2014, 1(2), 60-65; Mattia Cocco et al., Journal of Medicinal Chemistry, 2014, 57(24), 10366-10382; T. Satoh et al., Cell Death & Disease, 2013, 4, e644). Therefore, it is anticipated that inhibitors of NLRP3 will block pyroptosis, as well as the release of pro-inflammatory cytokines (e.g. IL-1β) from the cell.
THP-1 cells (ATCC #TIB-202) were grown in RPMI containing L-glutamine (Gibco #11835) supplemented with 1 mM sodium pyruvate (Sigma #S8636) and penicillin (100 units/ml)/streptomycin (0.1 mg/ml) (Sigma #P4333) in 10% Fetal Bovine Serum (FBS) (Sigma #F0804). The cells were routinely passaged and grown to confluency (˜10^6 cells/ml). On the day of the experiment, THP-1 cells were harvested and resuspended into RPMI medium (without FBS). The cells were then counted and viability (>90%) checked by Trypan blue (Sigma #T8154). Appropriate dilutions were made to give a concentration of 625,000 cells/ml. To this diluted cell solution was added LPS (Sigma #L4524) to give a 1 μg/ml Final Assay Concentration (FAC). 40 μl of the final preparation was aliquoted into each well of a 96-well plate. The plate thus prepared was used for compound screening.
The following method step-by-step assay was followed for compound screening. • 1. Seed THP-1 cells (25,000 cells/well) containing 1.0 μg/ml LPS in 40 μl of RPMI medium (without FBS) in 96-well, black walled, clear bottom cell culture plates coated with poly-D-lysine (VWR #734-0317) • 2. Add […] compound (8 points half-log dilution, with 10 μM top dose) or vehicle (DMSO 0.1% FAC) to the appropriate wells • 3. Incubate for 3 hrs at 37° C. in 5% CO2 • 4. Add 5 μl nigericin (Sigma #N7143) (FAC 5 μM) to all wells • 5. Incubate for 1 hr at 37° C. and 5% CO2 • 6. At the end of the incubation period, spin plates at 300×g for 3 mins and remove supernatant • 7. Then add 50 μl of resazurin (Sigma #R7017) (FAC 100 μM resazurin in RPMI medium without FBS) and incubate plates for a further 1-2 hrs at 37° C. and 5% CO2 • 8. Plates were read in an Envision reader at Ex 560 nm and Em 590 nm • 9. IC50 data is fitted to a non-linear regression equation (log inhibitor vs response-variable slope 4-parameters)

Sequence of NLRP3 (Q96P20 whole entry): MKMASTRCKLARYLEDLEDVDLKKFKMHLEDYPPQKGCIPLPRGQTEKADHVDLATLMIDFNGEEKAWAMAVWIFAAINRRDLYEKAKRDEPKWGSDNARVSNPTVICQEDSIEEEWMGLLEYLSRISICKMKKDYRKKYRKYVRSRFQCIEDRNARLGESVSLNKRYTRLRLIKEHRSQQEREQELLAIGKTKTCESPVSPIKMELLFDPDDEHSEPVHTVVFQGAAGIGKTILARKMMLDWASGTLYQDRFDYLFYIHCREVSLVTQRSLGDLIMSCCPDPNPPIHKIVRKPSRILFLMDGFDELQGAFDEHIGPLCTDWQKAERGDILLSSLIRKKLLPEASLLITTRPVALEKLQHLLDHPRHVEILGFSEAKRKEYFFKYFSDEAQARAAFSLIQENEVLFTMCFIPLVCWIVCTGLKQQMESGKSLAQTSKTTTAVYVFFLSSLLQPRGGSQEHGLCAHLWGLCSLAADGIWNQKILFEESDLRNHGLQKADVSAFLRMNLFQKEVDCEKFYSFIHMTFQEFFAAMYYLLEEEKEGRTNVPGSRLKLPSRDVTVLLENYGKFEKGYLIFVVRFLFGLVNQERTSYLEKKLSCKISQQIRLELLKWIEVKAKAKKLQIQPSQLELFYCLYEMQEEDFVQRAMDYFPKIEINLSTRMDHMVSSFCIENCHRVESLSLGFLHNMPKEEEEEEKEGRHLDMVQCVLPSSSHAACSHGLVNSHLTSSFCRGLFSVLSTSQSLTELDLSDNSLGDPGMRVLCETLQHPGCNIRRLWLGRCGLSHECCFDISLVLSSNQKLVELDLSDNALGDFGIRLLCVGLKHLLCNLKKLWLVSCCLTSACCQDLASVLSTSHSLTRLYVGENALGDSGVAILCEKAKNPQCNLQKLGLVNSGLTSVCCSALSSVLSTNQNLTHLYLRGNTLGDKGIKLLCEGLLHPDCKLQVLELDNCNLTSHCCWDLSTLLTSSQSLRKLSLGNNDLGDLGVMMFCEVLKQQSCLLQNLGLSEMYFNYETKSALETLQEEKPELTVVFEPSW

Row | pIC50 | Structure (SMILES)
1 | 5.59 to 6.19 | CCN(CC)C(=O)c1cc(S(=O)(=O)NC(=O)Nc2c(C(C)C)cccc2C(C)C)nn1C [Example 57, 3-(N-((2,6-Diisopropylphenyl)carbamoyl)sulfamoyl)-N,N-diethyl-1-methyl-1H-pyrazole-5-carboxamide]
2 | 5.00 to 5.59 | CC(=O)N1CCC(n2ccc(S(=O)(=O)NC(=O)Nc3c4c(cc5c3CCC5)CCC4)n2)CC1 [Example 5, 1-(1-Acetylpiperidin-4-yl)-N-((1,2,3,5,6,7-hexahydro-s-indacen-4-yl)carbamoyl)-1H-pyrazole-3-sulfonamide]
3 | 5.00 to 5.59 | Cn1nc(S(=O)(=O)NC(=O)Nc2c3c(cc4c2CCC4)CCC3)cc1C(=O)NCCO [Example 76, 3-(N-((1,2,3,5,6,7-Hexahydro-s-indacen-4-yl)carbamoyl)sulfamoyl)-N-(2-hydroxyethyl)-1-methyl-1H-pyrazole-5-carboxamide]
4 | 5.00 to 5.59 | CC(C)NC(=O)c1cc(S(=O)(=O)NC(=O)Nc2c3c(cc4c2CCC4)CCC3)nn1C [Example 46, 3-(N-((1,2,3,5,6,7-Hexahydro-s-indacen-4-yl)carbamoyl)sulfamoyl)-N-isopropyl-1-methyl-1H-pyrazole-5-carboxamide]
5 | 5.00 to 5.59 | CC(C)c1cccc(C(C)C)c1NC(=O)NS(=O)(=O)c1cc(C(=O)N(C)CC#N)n(C)n1 [Example 40, N-(Cyanomethyl)-3-(N-((2,6-diisopropylphenyl)carbamoyl)sulfamoyl)-N,1-dimethyl-1H-pyrazole-5-carboxamide]
6 | 5.59 to 6.19 | CNC(=O)c1cc(S(=O)(=O)NC(=O)Nc2c3c(cc4c2CCC4)CCC3)nn1C [Example 66, 3-(N-((1,2,3,5,6,7-Hexahydro-s-indacen-4-yl)carbamoyl)sulfamoyl)-N,1-dimethyl-1H-pyrazole-5-carboxamide]
7 | 5.59 to 6.19 | CN(C)CCN(C)C(=O)c1cc(S(=O)(=O)NC(=O)Nc2c3c(cc4c2CCC4)CCC3)nn1C [Example 10, N-(2-(Dimethylamino)ethyl)-3-(N-((1,2,3,5,6,7-hexahydro-s-indacen-4-yl)carbamoyl)sulfamoyl)-N,1-dimethyl-1H-pyrazole-5-carboxamide]
8 | 5.59 to 6.19 | Cn1nc(S(=O)(=O)NC(=O)Nc2c3c(cc4c2CCC4)CCC3)cc1C(=O)N1CC(F)C1 [Example 61, 5-(3-Fluoroazetidine-1-carbonyl)-N-((1,2,3,5,6,7-hexahydro-s-indacen-4-yl)carbamoyl)-1-methyl-1H-pyrazole-3-sulfonamide]
9 | 5.00 to 5.59 | COCCNC(=O)c1cc(S(=O)(=O)NC(=O)Nc2c3c(cc4c2CCC4)CCC3)nn1C [Example 77, 3-(N-((1,2,3,5,6,7-Hexahydro-s-indacen-4-yl)carbamoyl)sulfamoyl)-N-(2-methoxyethyl)-1-methyl-1H-pyrazole-5-carboxamide]
10 | 6.19 to 6.80 | CCN(CC)C(=O)c1cc(S(=O)(=O)NC(=O)Nc2c(C(C)C)cc(F)cc2C(C)C)nn1C [Example 48, N,N-Diethyl-3-(N-((4-fluoro-2,6-diisopropylphenyl)carbamoyl)sulfamoyl)-1-methyl-1H-pyrazole-5-carboxamide]
11 | 5.59 to 6.19 | CC(=O)N1CC(n2ccc(S(=O)(=O)NC(=O)Nc3c4c(cc5c3CCC5)CCC4)n2)C1 [Example 3, 1-(1-Acetylazetidin-3-yl)-N-((1,2,3,5,6,7-hexahydro-s-indacen-4-yl)carbamoyl)-1H-pyrazole-3-sulfonamide]
12 | 6.19 to 6.80 | CC(C)c1cc(F)cc(C(C)C)c1NC(=O)NS(=O)(=O)c1cc(C(=O)N2CCC2)n(C(C)C)n1 [Example 30, 5-(Azetidine-1-carbonyl)-N-((4-fluoro-2,6-diisopropylphenyl)carbamoyl)-1-isopropyl-1H-pyrazole-3-sulfonamide]
13 | 5.59 to 6.19 | CC(C)c1cccc(C(C)C)c1NC(=O)NS(=O)(=O)c1cc(C(=O)N(C)CCO)n(C)n1 [Example 75, 3-(N-((2,6-Diisopropylphenyl)carbamoyl)sulfamoyl)-N-(2-hydroxyethyl)-N,1-dimethyl-1H-pyrazole-5-carboxamide]

Further lines, the molecule ahead of its results:

Row | Structure (SMILES) | pIC50
14 | CN(C(=O)c1cc(S(=O)(=O)NC(=O)Nc2c3c(cc4c2CCC4)CCC3)nn1C)C1COC1 [Example 17, 3-(N-((1,2,3,5,6,7-Hexahydro-s-indacen-4-yl)carbamoyl)sulfamoyl)-N,1-dimethyl-N-(oxetan-3-yl)-1H-pyrazole-5-carboxamide] | 5.59 to 6.19
15 | CN1CCn2nc(S(=O)(=O)NC(=O)Nc3c4c(cc5c3CCC5)CCC4)cc2C1=O [Example 4, N-((1,2,3,5,6,7-Hexahydro-s-indacen-4-yl)carbamoyl)-5-methyl-4-oxo-4,5,6,7-tetrahydropyrazolo[1,5-a]pyrazine-2-sulfonamide] | 5.00 to 5.59
16 | Cn1nc(S(=O)(=O)NC(=O)Nc2c3c(cc4c2CCC4)CCC3)cc1C(=O)N1CCC(O)CC1 [Example 24, N-((1,2,3,5,6,7-Hexahydro-s-indacen-4-yl)carbamoyl)-5-(4-hydroxypiperidine-1-carbonyl)-1-methyl-1H-pyrazole-3-sulfonamide] | 5.00 to 5.59
17 | CC(C)c1cccc(C(C)C)c1NC(=O)NS(=O)(=O)c1cc(C(=O)N2CCOCC2)n(C)n1 [Example 21, N-((2,6-Diisopropylphenyl)carbamoyl)-1-methyl-5-(morpholine-4-carbonyl)-1H-pyrazole-3-sulfonamide] | 5.59 to 6.19
18 | CC(C)c1cccc(C(C)C)c1NC(=O)NS(=O)(=O)c1cc(C(=O)N(C)C2CCC2)n(C)n1 [Example 8, N-Cyclobutyl-3-(N-((2,6-diisopropylphenyl)carbamoyl)sulfamoyl)-N,1-dimethyl-1H-pyrazole-5-carboxamide] | 5.59 to 6.19
19 | CC(C)c1ccc(-c2cnn(C)c2)cc1NC(=O)NS(=O)(=O)c1cc(C(=O)N(C)C)n(C)n1 [Example 36, 3-(N-((2-Isopropyl-5-(1-methyl-1H-pyrazol-4-yl)phenyl)carbamoyl)sulfamoyl)-N,N,1-trimethyl-1H-pyrazole-5-carboxamide] | 5.59 to 6.19
20 | Cn1nc(S(=O)(=O)NC(=O)Nc2c3c(cc4c2CCC4)CCC3)cc1C(=O)N1CCCC1 [Example 59, N-((1,2,3,5,6,7-Hexahydro-s-indacen-4-yl)carbamoyl)-1-methyl-5-(pyrrolidine-1-carbonyl)-1H-pyrazole-3-sulfonamide] | 5.59 to 6.19
21 | Cn1nc(S(=O)(=O)NC(=O)Nc2c3c(cc4c2CCC4)CCC3)cc1C(=O)N1CCOCC1 [Example 28, N-((1,2,3,5,6,7-Hexahydro-s-indacen-4-yl)carbamoyl)-1-methyl-5-(morpholine-4-carbonyl)-1H-pyrazole-3-sulfonamide] | 5.59 to 6.19
22 | CN(C(=O)c1cc(S(=O)(=O)NC(=O)Nc2c3c(cc4c2CCC4)CCC3)nn1C)C1CCCC1 [Example 11, N-Cyclopentyl-3-(N-((1,2,3,5,6,7-hexahydro-s-indacen-4-yl)carbamoyl)sulfamoyl)-N,1-dimethyl-1H-pyrazole-5-carboxamide] | 5.59 to 6.19
23 | CN(C)CCCN(C)C(=O)c1cc(S(=O)(=O)NC(=O)Nc2c3c(cc4c2CCC4)CCC3)nn1C [Example 6, N-(3-(Dimethylamino)propyl)-3-(N-((1,2,3,5,6,7-hexahydro-s-indacen-4-yl)carbamoyl)sulfamoyl)-N,1-dimethyl-1H-pyrazole-5-carboxamide] | 5.00 to 5.59
24 | CC(C)c1ccc(-c2cncnc2)cc1NC(=O)NS(=O)(=O)c1cc(C(=O)N(C)C)n(C)n1 [Example 34, 3-(N-((2-Isopropyl-5-(pyrimidin-5-yl)phenyl)carbamoyl)sulfamoyl)-N,N,1-trimethyl-1H-pyrazole-5-carboxamide] | 5.59 to 6.19
25 | CN(CC(O)CO)C(=O)c1cc(S(=O)(=O)NC(=O)Nc2c3c(cc4c2CCC4)CCC3)nn1C (stereo not shown) [Example 19, N-(2,3-Dihydroxypropyl)-3-(N-((1,2,3,5,6,7-hexahydro-s-indacen-4-yl)carbamoyl)sulfamoyl)-N,1-dimethyl-1H-pyrazole-5-carboxamide] | 5.59 to 6.19
